We go through one compound from patent publication US20040116505A1, “Treatment of tics, tremors and related disorders” (priority 2001, published 2004).

The conditions of series [1]: in vivo; cited from earlier work.
For series [2] the following is noted: cited from earlier work.
The test system of series [3] is patients suffering from tics. Nature of the series: Study in five patients suffering from tics who failed standard drug therapies. The format is in vivo, human. The note with it: five patients non-responsive to standard tic therapies; 250 mg BID or 500 mg BID to 1500 mg BID. How it is done: Patients received either Low (250 mg BID) or standard doses (500 mg BID to 1500 mg BID) of levetiracetam.

Turning to `CC[C@@H](C(N)=O)N1CCCC1=O` [levetiracetam, (S)-2-(2-Oxo-pyrrolidin-1-yl)-butyramide], in series [1], the side effects result is recorded as “minimal side effects”. Moreover, the “levetiracetam excreted unchanged or as an inactive metabolite” value in series [2] (in vivo) is 90%. In series [2] (oral), the oral bioavailability is about 100%. In addition, the “reduction of tic symptoms” value in series [3] is recorded as “majority of patients experienced a reduction of tic symptoms”.
